This is an account of results in patent publication US20160223554A1, “METHODS FOR DIAGNOSIS, PROGNOSIS AND METHODS OF TREATMENT” (priority 2011, published 2016).

The subject of assay [1] is AML blasts. Kind of assay: SCNP signaling and apoptosis nodes in AML BMMC (Example 4, Study No. 2). It counts as cell-based, human.
For assay [2], the system named is AML blasts. Put plainly: SCNP phospho-flow signaling nodes in AML PBMC (Example 2, Study No. 1). It counts as cell-based, human. To be noted: for Mean Value of CRs: CR patients; for Mean Value of CRs / Mean Value of NRs: Study No. 1; for Mean Value of NRs: NR patients. The method, then: Frozen cells are thawed in a 37° C. water bath and gently resuspended in the vial and transferred to the 15 mL conical tube. The 15 mL tube is centrifuged at 930 RPM (200×g) for 8 minutes at room temperature. The supernatant is aspirated and the pellet is gently resuspended in 1 mL media A. The cell suspension is filtered through a 70 um cell strainer into a new 15 mL tube. The cell strainer is rinsed with 1 mL media A and another 12 ml of media A into the 15 mL tube. The cells are mixed into an even suspension. A 20 μL aliquot is immediately removed into a 96-well plate containing 180 μL PBS+4% FBS+CD45 Alexa 700+PI to determine cell count and viability post spin. After the determination, the 15 mL tubes are centrifuged at 930 RPM (200×g) for 8 minutes at room temperature. The supernatant is aspirated and the cell pellet is gently resuspended in 4 mL PBS+4 μL Amine Aqua and incubated for 15 min in a 37° C. incubator. 10 mL RPMI+1% FBS is added to the cell suspension and the tube is inverted to mix the cells. The 15 mL tubes are centrifuged at 930 RPM (200×g) for 8 minutes at room temperature. The cells are resuspended in Media A at the desired cell concentration (1.25×10^6/mL). For samples with low numbers of cells (<18.5×10^6), the cells are resuspended in up to 15 mL media. For samples with high numbers of cells (>18.5×10^6), the volume is raised to 10 mL with media A and the desired volume is transferred to a new 15 mL tube, and the cell concentration is adjusted to 1.25×10^6 cells/ml. 1.6 mL of the above cell suspension (concentration at 1.25×10^6 cells/ml) is transferred into wells of a multi-well plate. From this plate, 80 ul is dispensed into each well of a subsequent plate. The plates are covered with a lid (Nunc) and placed in a 37° C. incubator for 2 hours to rest.
A concentration for each stimulant that is five folds more (5×) than the final concentration is prepared using Media A as diluent. 5× stimuli are arrayed into wells of a standard 96 well v-bottom plate that correspond to the wells on the plate with cells to be stimulated.
Adding the stimulant: The cell plate(s) are taken out of the incubator and placed in a 37° C. water bath next to the pipette apparatus. The cell plate is taken from the water bath and gently swirled to resuspend any settled cells. With pipettor, the stimulant is dispensed into the cell plate and vortexed at “7” for 5 seconds. The deep well plate is put back into the water bath.
The plate is covered with foil sealer and incubated in a 37° C. water bath for 10 minutes. The plate is spun for 6 minutes at 2000 rpm at room temperature. The cells are aspirated using a 96 well plate aspirator (VP Scientific). The plate is vortexed to resuspend cell pellets in the residual volume. The pellet is ensured to be dispersed before the Methanol step (see cell permeabilization) or clumping will occur.
Cell Permeabilization: Permeability agent, for example methanol, is added slowly and while the plate is vortexing. To do this, the cell plate is placed on titer plate shaker and made sure it is secure. The plate is set to shake using the highest setting. A pipetter is used to add 0.6 mls of 100% methanol to the plate wells. The plate(s) are put on ice until this step has been completed for all plates. Plates are covered with a foil seal using the plate roller to achieve a tight fit. At this stage the plates can be stored at −80° C.
Cells are thawed if frozen. Cells are pelleted at 2000 rpm 5 minutes. Supernatant is aspirated with vacuum aspirator. Plate is vortexed on a “plate vortex” for 5-10 seconds. Cells are washed with 1 mL FACS buffer. Repeat the spin, aspirate and vortex steps as above. 50 μL of FACS/stain buffer with the desired, previously optimized, antibody cocktail is added to two rows of cells at a time and agitate the plate. The plate is covered and incubated in a shaker for 30 minutes at room temperature (RT). During this incubation, the compensation plate is prepared.

The mark [3] stands for this setting: Fold metric, all patients, Study No. 2.
The mark [4] stands for this setting: Study No.2, patients less than 60 years old.
Setting [5] is: Study No.2, patients with Secondary AML.
[6] abbreviates: Total Phospho metric, Study No. 1, CRp patient included in NR group.
Where [7] appears, read: read-out p-Stat1, metric TotalPhospho.
[8] abbreviates: read-out p-Stat3, metric TotalPhospho.
Where [9] appears, read: read-out p-CREB, metric TotalPhospho.
Setting [10] is: read-out p-Plcγ2, metric TotalPhospho.
[11] abbreviates: read-out p-Akt, metric TotalPhospho.
The mark [12] stands for this setting: read-out p-Erk, metric TotalPhospho.
The mark [13] stands for this setting: Fold metric, Study No. 1, CRp patient included in NR group.

For the molecule `COc1cc([C@@H]2c3cc4c(cc3[C@@H](O[C@@H]3O[C@@H]5CO[C@@H](C)O[C@H]5[C@H](O)[C@H]3O)[C@H]3COC(=O)[C@H]23)OCO4)cc(OC)c1O` [Etoposide, reference compound], in the assay on AML blasts [1] (setting [3]), the “Mean Value of CRs, c-PARP” value was 0.79 and the “Mean Value of NRs, c-PARP” value came out at 0.25. For the same molecule, in the assay with AML blasts [1] (setting [4]), the “Mean Value of CRs, p-Chk2−,c-PARP+ Quad” value was found to be 21.17 and the “Mean Value of NRs, p-Chk2−,c-PARP+ Quad” value was 9.58. Further, in the assay with AML blasts [1] (setting [5]), the “Mean Value of CRs, p-Chk2+,c-PARP− Quad” value is on record as 20.98; the “Mean Value of CRs, p-Chk2−,c-PARP+ Quad” value was 32.71; the “Mean Value of NRs, p-Chk2+,c-PARP− Quad” value turned out to be 55.02; the “Mean Value of NRs, p-Chk2−,c-PARP+ Quad” value was determined as 13.24.

Take `CN[C@@H]1C[C@H]2O[C@@](C)([C@@H]1OC)n1c3ccccc3c3c4c(c5c6ccccc6n2c5c31)C(=O)NC4` [Stautospotine]: in the assay with AML blasts [1] (setting [4]), the “Mean Value of CRs, c-PARP Fold” value was 3.47 and the “Mean Value of NRs, c-PARP Fold” value is listed as 7.06.

Take EPO: in the assay with AML blasts [2] (setting [6]), the “Mean Value of CRs, p-Stat1” value was 0.17; the “Mean Value of CRs, p-Stat3” value stood at 0.64; the “Mean Value of NRs, p-Stat1” value is recorded as 0.42; the “Mean Value of NRs, p-Stat3” value is 1.23. In the assay with AML blasts [2] (setting [7]), the “Mean Value of CRs” value is given as 0.20 and the “Mean Value of NRs” value is 0.42. In addition, in the assay with AML blasts [2] (setting [8]), the “Mean Value of CRs” value is listed as 0.72 and the “Mean Value of NRs” value was found to be 1.23.

Consider IGF-1, for which, in the assay with AML blasts [2] (setting [6]), the “Mean Value of CRs, p-CREB Alexa488” value was 1.11; the “Mean Value of CRs, p-CREB PE” value was determined as 1.42; the “Mean Value of CRs, p-Plcγ2” value came to 1.82; the “Mean Value of NRs, p-CREB Alexa488” value was found to be 1.62. Further, in the assay with AML blasts [2] (setting [6]), the “Mean Value of NRs, p-CREB PE” value is recorded as 2.29 and the “Mean Value of NRs, p-Plcγ2” value amounted to 2.76. In the assay with AML blasts [2] (setting [9]), the “Mean Value of CRs” value worked out at 1.52 and the “Mean Value of NRs” value was found to be 2.29. In addition, in the assay with AML blasts [2] (setting [10]), the “Mean Value of CRs” value is on record as 1.91 and the “Mean Value of NRs” value came out at 2.76.

For the molecule IL-l0, in the assay with AML blasts [2] (setting [6]), the “Mean Value of CRs, p-Stat1” value worked out at 0.17 and the “Mean Value of NRs, p-Stat1” value stood at 0.47.

For the molecule SDF -1α, in the assay on AML blasts [2] (setting [11]), the “Mean Value of CRs” value was determined as 0.57 and the “Mean Value of NRs” value was 1.04.

In the case of TNFα, in the assay on AML blasts [2] (setting [12]), the “Mean Value of CRs” value is 1.25 and the “Mean Value of NRs” value came to 1.65.

B1: M-CSF (protein, UniProt P09603 33-554, looked up)
Macrophage colony-stimulating …: EEVSEYCSHMIGSGHLQSLQRLIDSQMETSCQITFEFVDQEQLKDPVCYLKKAFLLVQDIMEDTMRFRDNTPNAIAIVQLQELSLRLKSCFTKDYEEHDKACVRTFYETPLQLLEKVKNVFNETKNLLDKDWNIFSKNCNNSFAECSSQDVVTKPDCNCLYPKAIPSSDPASVSPHQPLAPSMAPVAGLTWEDSEGTEGSSLLPGEQPLHTVDPGSAKQRPPRSTCQSFEPPETPVVKDSTIGGSPQPRPSVGAFNPGMEDILDSAMGTNWVPEEASGEASEIPVPQGTELSPSRPGGGSMQTEPARPSNFLSASSPLPASAKGQQPADVTGTALPRVGPVRPTGQDWNHTPQKTDHPSALLRDPPEPGSPRISSLRPQGLSNPSTLSAQPQLSRSHSSGSVLPLGELEGRRSTRDRRSPAEPEGGPASEGAARPLPRFNSVPLTDTGHERQSEGSFSPQLQESVFHLLVPSVILVLLAVGGLLFYRWRRRSHQEPQRADSPLEQPEGSPLTQDDRQVELPV
For B1, in the assay on AML blasts [2] (setting [13]), the “Mean Value of CRs, p-Akt” value is −0.16 and the “Mean Value of NRs, p-Akt” value turned out to be 0.05. Further, in the assay on AML blasts [2] (setting [6]), the “Mean Value of CRs, p-CREB” value is reported as 1.26; the “Mean Value of CRs, p-Plcγ2” value was found to be 1.79; the “Mean Value of NRs, p-CREB” value was found to be 1.76; the “Mean Value of NRs, p-Plcγ2” value worked out at 2.8. Besides, in the assay with AML blasts [2] (setting [10]), the “Mean Value of CRs” value was 1.86 and the “Mean Value of NRs” value was determined as 2.81.

B2: CD40L (protein, UniProt P29965 113-261, looked up)
CD40 ligand, soluble form: MQKGDQNPQIAAHVISEASSKTTSVLQWAEKGYYTMSNNLVTLENGKQLTVKRQGLYYIYAQVTFCSNREASSQAPFIASLCLKSPGRFERILLRAANTHSSAKPCGQQSIHLGGVFELQPGASVFVNVTDPSQVSHGTGFTSFGLLKL
Take B2: in the assay with AML blasts [2] (setting [6]), the “Mean Value of CRs, p-CREB” value came to 1.37; the “Mean Value of CRs, p-Erk” value turned out to be 1.18; the “Mean Value of NRs, p-CREB” value was found to be 2.67; the “Mean Value of NRs, p-Erk” value was 1.62. Moreover, in the assay with AML blasts [2] (setting [9]), the “Mean Value of CRs” value turned out to be 1.55 and the “Mean Value of NRs” value is listed as 2.66. Moreover, in the assay with AML blasts [2] (setting [12]), the “Mean Value of CRs” value is 1.18 and the “Mean Value of NRs” value is 1.64.
